In US20240092795A1, “PYRIDINE COMPOUNDS AS ALLOSTERIC SHP2 INHIBITORS” (Revolution Medicines, Inc., priority 2017, published 2024):

Molecular target: SHP2 (Homo sapiens (Human), UniProt Q06124)
Assay: SHP2 Allosteric Inhibition Assay (DiFMUP prompt fluorescence)
Format: biochemical
Details: 0.2 nM SHP2 with 0.5 μM Activating Peptide 1 or 2, surrogate substrate DiFMUP, 25° C.; read-out: SHP2 Allosteric Biochem: IC50
Excerpt: Without wishing to be bound by theory, SHP is allosterically activated through binding of bis-tyrosyl-phosphorylated peptides to its Src Homology 2 (SH2) domains. The latter activation step leads to the release of the auto-inhibitory interface of SHP2, which in turn renders the SHP2 protein tyrosine phosphatase (PTP) active and available for substrate recognition and reaction catalysis. The catalytic activity of SHP2 was monitored using the surrogate substrate DiFMUP in a prompt fluorescence assay format.
The phosphatase reactions were performed at room temperature in 96-well black polystyrene plate, flat bottom, non-binding surface (Corning, Cat #3650) using a final reaction volume of 100 μL and the following assay buffer conditions: 50 mM HEPES, pH 7.2, 100 mM NaCl, 0.5 mM EDTA, 0.05% P-20, 1 mM DTT.
The inhibition of SHP2 by compounds of the disclosure (concentrations varying from 0.00005-10 μM) was monitored using an assay in which 0.2 nM of SHP2 was incubated with 0.5 μM of Activating Peptide 1 (sequence: H2N-LN(pY)IDLDLV(dPEG8)LST (pY)ASINFQK-amide) or Activating Peptide 2 (sequence: H2N-LN(pY)AQLWHA(dPEG8) LTI(pY)ATIRRF-amide). After 30-60-minutes incubation at 25° C., the surrogate substrate DiFMUP (Invitrogen, Cat #D6567) was added to the reaction and activity was determined by a kinetic read using a microplate reader (Envision, Perkin-Elmer or Spectramax M5, Molecular Devices). The excitation and emission wavelengths were 340 nm and 450 nm, respectively. Initial rates were determined from a linear fit of the data, and the inhibitor dose response curves were analyzed using normalized ICso regression curve fitting with control based normalization.

SMILES | IC50
N[C@@H]1CCCC12CCN(c1cnc(-c3cccc(Cl)c3Cl)c(O)c1)CC2 [Example 3, 5-[(1R)-1-amino-8-azaspiro[4.5]decan-8-yl]-2-(2,3-dichlorophenyl)pyridin-3-ol] | 740 nM
Cc1cc(N2CCC3(CCC[C@H]3N)CC2)cnc1-c1cccc(Cl)c1Cl [Example 5, (1R)-8-[6-(2,3-dichlorophenyl)-5-methylpyridin-3-yl]-8-azaspiro[4.5]decan-1-amine] | 210 nM

The remaining lines, values ahead:

IC50 | SMILES
210 nM | N[C@@H]1CCCC12CCN(c1cc(O)c(-c3cccc(Cl)c3Cl)nc1CO)CC2 [Example 1, 5-[(4R)-4-amino-8-azaspiro[4.5]decan-8-yl]-2-(2,3-dichlorophenyl)-6-(hydroxymethyl)pyridin-3-ol]
37 nM | N[C@@H]1CCCC12CCN(c1cc(O)c(Sc3cccc(Cl)c3Cl)nc1CO)CC2 [Example 2, 5-[(1R)-1-amino-8-azaspiro[4.5]decan-8-yl]-2-[(2,3-dichlorophenyl)sulfanyl]-6-(hydroxymethyl)pyridin-3-ol]
69 nM | Cc1cc(N2CCC3(CCC[C@H]3N)CC2)c(CO)nc1-c1cccc(Cl)c1Cl [Example 4, {3-[(1R)-1-amino-8-azaspiro[4.5]decan-8-yl]-6-(2,3-dichlorophenyl)-5-methylpyridin-2-yl}methanol]
